Read-outs that look alike come from different tables or passages of the source.
Columns and labels:
HSV-1 = system: HSV-1; design: species or system mice; conditions: 500 nM; for HSV-1 reactivation from latency (in words): ex vivo TG explants
[1] = system: healthy retinal pigment epithelial cells (APRE); assay: Cytotoxicity by lysis, healthy retinal cells; type: cell-based; conditions: highest dose tested
Description: (§1) FIG. 17 is a series of graphs showing the effect of R-DOI dose on cytotoxicity of healthy retinal pigment epithelial cells (APRE) and cancerous retinoblastoma cells (Y-79) at 24 hours (top), 48 hours (middle), and 72 hours (bottom).
(§2) Healthy (APRE) and cancerous (Y-79) retinal cell lines were treated with varying doses of R-DOI and monitored for cytotoxicity by lysis at 24 hour intervals.

[2] = system: Herpes Simplex Virus type 1 (HSV-1) RE strain; assay: Herpes stromal keratitis model, BALB/c mice, topical eye drops, clinical scoring and histology; type: in vivo; conditions: for HSV-induced pathological vascularization of the eye: mouse models of herpetic keratitis, ophthalmic formulation; for animal body weight: HSV-1 infected mice, relative to BSS controls
Description: DOI drops were topically applied for 7 days post infection and chronic disease was assessed up to day 15.
There is a complete absence of inflammatory or red blood cells and no vascularization of corneal tissue. 2nd row panels: HSV infection and long-term inflammatory responses induces disruption of the epithelial layer, thickening of the stroma, and identifiable vascularization of corneal tissue (yellow arrows) with extensive presence of immune infiltrates.
16 BALB/c mice were randomly sorted into 3 treatment arms: 1) Ophthalmic Balanced Saline Solution diluted 1:1 in PBS (BSS+PBS) treated (6 mice); 2) DOI treated (XTPFDOI) (5 mice); 3) 1.0% TFT (TFT+PBS) (5 mice). Animals were anesthetized with […]:ketamine and both eyes were scarified in a cross hatch pattern using a curved needle. Immediately following ocular scarification, eyes were inoculated with a 3 microliter drop containing 10,000 plaque forming units (PFU) of Herpes Simplex Virus type 1 (HSV-1) RE strain. The next morning following infection, animals were treated with the respective treatment as assigned within their treatment arm. Treatments were applied topically to the eye in a 4 microliter drop. Drops were applied 4 time per day from 9:00 am to 5:30 pm, starting immediately following clinical scoring. Treatments were applied for the first 8 days post infection and then stopped. Clinical scoring was done using a slit lamp biomicroscope magnified at 16× on the days indicated by a single individual masked to the drug treatment parameters. Slit lamp biomicroscopy also included fluorescein exclusion labeling of the corneal surface following scoring of all clinical parameters. Each eye was scored independently. Animal deaths were recorded if euthanasia was required due to severe encephalitis or if animals died from HSV-associated disease. Clinically clear eyes were scored as such if no apparent signs of disease were present in any clinical parameter during the chronic phase.
At day 15 post infection, a stage that would be during chronic immune-associated disease with no virus present, animals were euthanized and the eyes were removed for histology. Random representative eyes were prepared by taking sections through the central cornea and processed by H&E histology for visualization. Sections were examined microscopically and photographed across the central cornea.

aortic rings = assay: Aortic ring assay (VEGF-mediated neovascularization); design: species or system mice
Description: FIG. 13 is a series of photographs showing VEGF-mediated neovascularization from aortic rings in the presence of R-DOI, TCB2, and 4F4PP.
These aortic rings are implanted into matrigel basement membrane and incubated in endothelial cell growth medium containing vascular endothelial growth factor. Aortic rings are continuously incubated in the presence of 5-HT2A receptor agonists and antagonists at the indicated concentrations and examined by microscopy daily. Extensive sprouting, branching and networking of new blood vessels can be observed in control aortic rings, where multiple images needed to be stitched together in order to capture the extensive blood vessel network formed.

[3] = system: cancerous retinoblastoma cells (Y-79); assay: Cytotoxicity by lysis, retinoblastoma cells; type: cell-based; conditions: varying doses
Description: as §1, §2

[4] = system: VEGF-mediated corneal vascularization; assay: VEGF-mediated ocular vascularization model, topical DOI; type: in vivo, rabbit; conditions: eyes treated with DOI
Description: A rabbit corneal micropocket assay is used to assess the ability of topically administered DOI to prevent VEGF-mediated corneal vascularization. VEGF or saline control slow release micropellets are generated as described previously. A corneal micropocket is created in each rabbit eye 3.0 mm from the corneal limbus, and micropellets are implanted. Starting the day after implant, paired OD and OS eyes are treated four times daily with either control (OD eyes) or DOI (OS eyes) drops, respectively. The utilization of sister eyes for topical drug evaluation controls for animal-to-animal variability. Eyes are clinically assessed daily and imaged by slit lamp biomicroscopy as described in all other ocular studies herein.
VEGF-induced vascularization and vessel permeability can lead to corneal edema, inflammation, and ocular clouding. Therefore, a panel of clinical parameters (described herein) is assessed daily by fluorescent slit-lamp biomicroscopy to ascertain the therapeutic effects of topical DOI treatment on vascularization-mediated eye disease.
VEGF is a known mediator of vascular permeability and we have observed in this model system that edema and chemosis is common, irrespective of the extent of vascularization induced. […]

[5] = system: human microvascular endothelial cells (HMEC) spheroids; assay: Spheroid tubule growth assay; type: cell-based; conditions: matrigel with VEGF; serotonin 50 nM, R-DOI 100 nM, TCB2 500 nM
Description: FIG. 16 is a series of fluorescent micrographs showing the effect of 5HT2A receptor agonists on vascular tubule growth from tissue-like spheroids.
HMEC cells were cultured in specially coated U-shaped bottom 96 well plates in order to form tissue-like three-dimension spheroids. Spheroids were subsequently implanted into wells that contained matrigel basement membranes supplemented with vascular endothelial growth factor (VEGF) or starved (Starvation control-no VEGF). Culture media was treated with either serotonin (50 nM), (R-DOI (100 nM), or TCB2 (500 nM) outgrowth from the spheroids of vascular-like structures was monitored microscopically.

[6] = system: Herpes Simplex Virus type 1 (HSV-1) RE strain; assay: Herpes stromal keratitis model, C57bl/6 mice, topical eye drops; type: in vivo
[7] = relative to BSS controls and TFT controls, by day 12 post-infection

With `COc1cc(C[C@@H](C)N)c(OC)cc1I` [R-DOI, R-2,5-Dimethoxy-4-iodoamphetamine] the “HSV-1 reactivation from latency (in words)” value (from here on “HSV-1 reactivation”) (HSV-1) was “inhibits HSV-1 reactivation from latent neurons”, the “HSV-1 reactivation” value (HSV-1; listed as (R)-DOI) was “inhibited HSV-1 reactivation from latency” and the cytotoxicity by lysis [1] was “modest cytotoxicity”. For the same molecule, the “HSV-induced pathological vascularization of the eye” value [2] was “suppressed HSV-induced pathological vascularization of the eye”, the “HSV-induced pathological vascularization of the eye” value ([2]; listed as (R)-DOI) was “demonstrated anti-vascularization properties” and the “inhibitory effects for neovascularization, sprouting, branching, and networking” value (aortic rings; 10 nM concentration) was “began to no longer be as effective”. For the same molecule, the “blood vessel sprouting, branching and formation” value (aortic rings; VEGF-containing endothelial growth medium, matrigel) was “inhibited blood vessel sprouting, branching and formation”, the cytotoxicity by lysis ([3]; Y-79, 24 hours) was “strong, dose-dependent toxicity” and the cytotoxicity by lysis ([3]; Y-79, 48 hours) was “killing effect was saturated at all doses”.
`O=c1[nH]c(=O)n([C@H]2C[C@H](O)[C@@H](CO)O2)cc1C(F)(F)F` [TFT, trifluorothymidine, reference compound] was tested, and the HSV replication ([2]; 1% TFT) was “complete inhibition of HSV replication” and the animal body weight [2] was “did not change body weight relative to BSS controls”.
`COc1cc(CC(C)N)c(OC)cc1I` (stereo not drawn) [DOI, 1-(4-Iodo-2,5-dimethoxyphenyl)propan-2-amine] was tested, and the “clinical presentation of edema and chemosis” value [4] was “greatly reduced”, the “vascularization of the eye” value [4] was “resolution of vascularization” and the “ganglia positive for infectious HSV-1 (number/total)” value (shortened to “ganglia positive … (number/total)”) (HSV-1; day 1 post-explant) was 0/7. For the same molecule, the “percentage positive for infectious HSV-1” value (HSV-1; day 1 post-explant) was “(0%)”, the “ganglia positive … (number/total)” value (HSV-1; day 2 post-explant) was 0/7 and the “percentage positive for infectious HSV-1” value (HSV-1; day 2 post-explant) was “(0%)”. The “ganglia positive … (number/total)” value (HSV-1; day 3 post-explant) was 0/7, the “percentage positive for infectious HSV-1” value (HSV-1; day 3 post-explant) was “(0%)” and the “ganglia positive … (number/total)” value (HSV-1; day 4 post-explant) was 0/7. The “percentage positive for infectious HSV-1” value (HSV-1; day 4 post-explant) was “(0%)”, the “ganglia positive … (number/total)” value (HSV-1; day 5 post-explant) was 0/7 and the “percentage positive for infectious HSV-1” value (HSV-1; day 5 post-explant) was “(0%)”. For the same molecule, the “ganglia positive … (number/total)” value (HSV-1; day 6 post-explant) was 0/7, the “percentage positive for infectious HSV-1” value (HSV-1; day 6 post-explant) was “(0%)” and the “ganglia positive … (number/total)” value (HSV-1; day 7 post-explant) was 0/7. For the same molecule, the “percentage positive for infectious HSV-1” value (HSV-1; day 7 post-explant) was “(0%)”, the “ganglia positive … (number/total)” value (HSV-1; day 8 post-explant) was 1/7 and the “percentage positive for infectious HSV-1” value (HSV-1; day 8 post-explant) was “(14.3%)”. The “ganglia positive … (number/total)” value (HSV-1; day 9 post-explant) was 1/7, the “percentage positive for infectious HSV-1” value (HSV-1; day 9 post-explant) was “(14.3%)” and the “ganglia positive … (number/total)” value (HSV-1; day 10 post-explant) was 2/7. For the same molecule, the “percentage positive for infectious HSV-1” value (HSV-1; day 10 post-explant) was “(28.6%)”, the “delay in reactivation of HSV-1 from TGs” value (HSV-1; relative to mock) was 2 fold and the “degree of reactivation and amount of infectious virus shed from latent neurons (PFU/ml/TG; PFU/ml/positive TG)” value (HSV-1; relative to mock treated neurons) was “significantly inhibited the degree of reactivation and amount of infectious virus shed from latent neurons”. The “HSV-1 reactivation” value (HSV-1) was “maintains latency of HSV-1 within reactivation induced neurons”, the “vascular-like tubular growth from HMEC spheroids” value [5] was “abrogated formation of vascular-like tubular growth” and the “clinical scores (three metrics)” value ([6]; compared to BSS control, by day 16 post-infection) was “even greater improvement in each metric”. The “clinical scores (slit-lamp biomicroscopy, stromal opacity/inflammation, corneal neovascularization)” value ([6]; relative to BSS controls, by day 12 post-infection, 4 μl/eye 4x daily for 8 days) was “decreased score in all three metrics”, the animal body weight [2] was “retained” and the “eyes exhibiting complete clinical resolution” value ([2]; by day 15) was 60%. The “histopathology of the eye (cornea)” value ([2]; day 15 post infection) was “normal ocular morphology with an absence of clinical signs of ocular disease”, the “development of all clinically scored parameters” value ([2]; drops for 7 days post infection, chronic disease assessed up to day 15) was “suppressed development of all clinically scored parameters” and the “control of acute and chronic vision-threatening disease compared to TFT” value ([2]; herpetic eye disease model) was “superior at controlling both acute and chronic vision-threatening disease”. The neovascularization score [2, 7] was “decreased”, the slit lamp score [2, 7] was “decreased” and the stroma capacity score [2, 7] was “decreased”.
For `NCCc1c[nH]c2ccc(O)cc12` [Serotonin, 5 hydroxytryptamine, reference compound], the “vascular-like tubular growth from HMEC spheroids” value [5] was “induced vascularization-like replication and tubule growth”.

Source: patent US11759438B2, “Compositions and methods for treating ocular pathologies” (priority 2017, dated 2023)
